The target in one assay is GSK 3α (Homo sapiens (Human), UniProt P49840). In words: GSK 3α enzyme inhibition (FRET, Z-LYTE, Method 2). The following applies: read-out: IC50 Values for Enzyme Inhibition, GSK3α. It is filed as biochemical. How it is done: The enzyme inhibitory activities of compounds disclosed herein are determined by FRET using synthetic peptides labelled with both donor and acceptor fluorophores (Z-LYTE, Invitrogen Ltd., Paisley, UK).
The following two assay variants can be used for determination of GSK 3α inhibition.
The inhibitory activities of compounds of the invention against the GSK 3α enzyme isoform (Invitrogen), are evaluated by determining the level of activation/phosphorylation of the target peptide. The GSK3-α protein (500 ng/mL, 2.5 μL) is mixed with the test compound (2.5 μL at either 4 μg/mL, 0.4 μg/mL, 0.04 μg/mL, or 0.004 μg/mL) for 2 hr at RT. The FRET peptide (8 μM, 2.5 μL), which is a phosphorylation target for GSK3α, and ATP (40 μM, 2.5 μL) are then added to the enzyme/compound mixture and the resulting mixture incubated for 1 hr. Development reagent (protease, 5 μL) is added for 1 hr prior to detection in a fluorescence microplate reader (Varioskan® Flash, ThermoFisher Scientific).
In all cases, the site-specific protease cleaves non-phosphorylated peptide only and eliminates the FRET signal. Phosphorylation levels of each reaction are calculated using the ratio of coumarin emission (donor) over fluorescein emission (acceptor), for which high ratios indicate high phosphorylation and low ratios indicate low phosphorylation levels. The percentage inhibition of each reaction is calculated relative to non-inhibited control and the 50% inhibitory concentration (IC50 value) is then calculated from the concentration-response curve.
This method follows the same steps as Method 1 above, but utilises a shorter period of mixing of the test compound (105 minutes instead of 2 hours) with the GSK3-α protein.

The next assay deals with PBMCs. Briefly: LPS-induced IL-8 release in PBMC cells (assay b). It is filed as cell-based, human. As to conditions: LPS-stimulated PBMCs, read-out: IC50 Values for Inhibition of Cytokine Release, PBMCs IL-8. How it is done: Peripheral blood mononuclear cells (PBMCs) from healthy subjects are separated from whole blood using a density gradient (Lymphoprep, Axis-Shield Healthcare). The PBMCs are seeded in 96 well plates and treated with compounds at the desired concentration for 2 hours before addition of 1 ng/mL LPS (Escherichia Coli 0111:B4 from Sigma Aldrich) for 24 hours under normal tissue culture conditions (37° C., 5% CO2). The supernatant is harvested for determination of IL-8 and TNFα concentrations by sandwich ELISA (Duo-set, R&D systems) and read on the fluorescence microplate reader (Varioskan® Flash, ThermoFisher Scientific). The concentration at 50% inhibition (IC50) of IL-8 and TNFα production is calculated from the dose response curve.

Each structure is given as a SMILES string. Where two headings read alike, the source gives them in different places.

Sequence of GSK 3α (P49840 whole entry): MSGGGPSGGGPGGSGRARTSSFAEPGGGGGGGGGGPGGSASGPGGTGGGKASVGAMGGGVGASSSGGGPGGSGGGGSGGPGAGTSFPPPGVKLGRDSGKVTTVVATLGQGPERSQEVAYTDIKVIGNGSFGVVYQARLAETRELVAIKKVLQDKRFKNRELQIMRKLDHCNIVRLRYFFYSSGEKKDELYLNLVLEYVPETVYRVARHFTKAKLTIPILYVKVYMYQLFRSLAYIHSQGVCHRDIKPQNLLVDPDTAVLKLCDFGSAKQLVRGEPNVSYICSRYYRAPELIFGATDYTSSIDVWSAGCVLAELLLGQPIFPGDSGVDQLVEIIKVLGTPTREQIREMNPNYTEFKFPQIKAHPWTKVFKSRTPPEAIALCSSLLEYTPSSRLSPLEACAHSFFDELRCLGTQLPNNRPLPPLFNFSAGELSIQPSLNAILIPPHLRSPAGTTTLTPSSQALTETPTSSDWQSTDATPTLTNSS

As a reminder, the IC50 is the concentration that inhibits the measured activity by half. With `COc1c(NC(=O)Nc2ccc(Oc3ccnc(NCCN4CCOCC4)n3)c3ccccc23)cc(C(C)(C)C)cc1P(C)(C)=O` [15(al), 1-(5-(tert-butyl)-3-(dimethylphosphoryl)-2-methoxyphenyl)-3-(4-((2-((2-morpholinoethyl)amino)pyrimidin-4-yl)oxy)naphthalen-1-yl)urea], the IC50 at GSK 3α was found to be 339 nM; with PBMCs, 3.7 nM.
In the case of `COc1c(NC(=O)Nc2ccc(Oc3ccnc(NCCn4cccn4)n3)c3ccccc23)cc(C(C)(C)C)cc1P(C)(C)=O` [15(ao), 1-(4-((2-((2-(1H-pyrazol-1-yl)ethyl)amino)pyrimidin-4-yl)oxy)naphthalen-1-yl)-3-(5-(tert-butyl)-3-(dimethylphosphoryl)-2-methoxyphenyl)urea], the IC50 at GSK 3α worked out at 387 nM; in the assay with PBMCs (Homo sapiens, PBMC) it was 4.1 nM.
For the compound `Cc1c(NC(=O)Nc2ccc(Oc3ccnc(Nc4ccccc4)c3)c3ccccc23)cc(C(C)(C)C)cc1P(C)(C)=O` [15(ap), 1-(5-(tert-butyl)-3-(dimethylphosphoryl)-2-methylphenyl)-3-(4-((2-(phenylamino)pyridin-4-yl)oxy)naphthalen-1-yl)urea], the IC50 at GSK 3α was more than 16900 nM; in the assay with PBMCs (Homo sapiens, PBMC), 48.3 nM.
For the compound `COc1c(NC(=O)Nc2ccc(Oc3ccnc(Nc4cnn(C)n4)c3)c3ccccc23)cc(C(C)(C)C)cc1P(C)(C)=O` [15(ar), 1-(5-(tert-butyl)-3-(dimethylphosphoryl)-2-methoxyphenyl)-3-(4-((2-((2-methyl-2H-1,2,3-triazol-4-yl)amino)pyridin-4-yl)oxy)naphthalen-1-yl)urea], the IC50 on GSK 3α was 356 nM; with PBMCs (Homo sapiens, PBMC), 0.8 nM.
On to `COc1ccccc1Nc1nccc(Oc2ccc(NC(=O)Nc3cc(C(C)(C)C)cc(P(C)(C)=O)c3OC)c3ccccc23)n1` [15(f), 1-(5-(tert-butyl)-3-(dimethylphosphoryl)-2-methoxyphenyl)-3-(4-((2-((2-methoxy-phenyl)amino)pyrimidin-4-yl)oxy)naphthalen-1-yl)urea], for which the IC50 on GSK 3α amounted to 3100 nM; in the assay on PBMCs, 26.2 nM.
As for `COc1ccc(Nc2nccc(Oc3ccc(NC(=O)Nc4cc(C(C)(C)C)cc(P(C)(C)=O)c4OC)c4ccccc34)n2)cc1` [15(h), 1-(5-(tert-butyl)-3-(dimethylphosphoryl)-2-methoxyphenyl)-3-(4-((2-((4-methoxy-phenyl)amino)pyrimidin-4-yl)oxy)naphthalen-1-yl)urea], the half-maximal inhibitory concentration (IC50) on GSK 3α came out at 779 nM; in the assay on PBMCs (Homo sapiens, PBMC), 4.6 nM.
Consider `COc1ccc(Nc2nccc(Oc3ccc(NC(=O)Nc4cc(C(C)(C)C)cc(P(C)(C)=O)c4OC)c4ccccc34)n2)cc1OC` [15(i), 1-(5-(tert-butyl)-3-(dimethylphosphoryl)-2-methoxyphenyl)-3-(4-((2-((3,4-dimethoxyphenyl)amino)pyrimidin-4-yl)oxy)naphthalen-1-yl)urea], for which the IC50 stood at 359 nM at GSK 3α and 1.5 nM in the assay with PBMCs (Homo sapiens, PBMC).
`COc1c(NC(=O)Nc2ccc(Oc3ccnc(Nc4ccccc4)n3)c3ccccc23)cc(C(C)(C)C)cc1[S+](C)[O-]` (centres unmarked) [15(k), 1-(5-(tert-butyl)-2-methoxy-3-(methylsulfinyl)phenyl)-3-(4-((2-(phenylamino)pyrimidin-4-yl)oxy)naphthalen-1-yl)urea]: the half-maximal inhibitory concentration (IC50) on GSK 3α was found to be 1170 nM; in the assay with PBMCs (Homo sapiens, PBMC) it was 5.6 nM.
As for `COc1c(NC(=O)Nc2ccc(Oc3ccnc(Nc4ccccc4)n3)c3ccccc23)cc(C(C)(C)C)cc1S(C)(=O)=O` [15(l), 1-(5-(tert-butyl)-2-methoxy-3-(methylsulfonyl)phenyl)-3-(4-((2-(phenylamino)pyrimidin-4-yl)oxy)naphthalen-1-yl)urea], the IC50 at GSK 3α is 8220 nM; in the assay with PBMCs (Homo sapiens, PBMC) it was 17.5 nM.
In the case of `COc1c(CS(C)(=O)=O)cc(C(C)(C)C)cc1NC(=O)Nc1ccc(Oc2ccnc(Nc3ccccc3)n2)c2ccccc12` [15(n), 1-(5-(tert-butyl)-2-methoxy-3-((methylsulfonyl)methyl)phenyl)-3-(4-((2-(phenylamino)-pyrimidin-4-yl)oxy)naphthalen-1-yl)urea], the IC50 on GSK 3α came to 1640 nM; in the assay on PBMCs (Homo sapiens, PBMC) it was 13.5 nM.

The record behind these values is patent US9890185B2, “Urea derivatives useful as kinase inhibitors” (Respivert Limited, priority 2013, dated 2018).
